Source: PMC11676204
pIC50: −log10 of the molar value. Where two headings read alike, the source gives them in different places.

Tests used:
[1] = system: methyl predenisolone-induced hypertensive rats; experiment: Antihypertensive activity, non-invasive tail-cuff method; assay type: in vivo, rat; set-up: Systolic BP / Diastolic BP: unit not given here; details: for Diastolic BP / Heart Rate / MABP / Systolic BP: methyl predenisolone 20 mg/kg/week rats, n = 4, mean ± S.E.M.
Experimental: After recording the initial BP of rats, the animals were divided into seven groups of four animals each. One group was chosen as the control group. The remaining groups were given a subcutaneous injection of methyl-predenisolone acetate (20 mg/kg/week) for one week, as described by Ekerbicer, N et al.. […] In total, 28 animals were evenly divided into 7 groups of 4 animals each to attain maximum balance of subjects across experimental conditions. […] Animals in group II (hypertensive control) were injected methylprednisolone acetate (20 mg/kg/week) intraperitoneally for hypertension induction, creating a baseline model of plateau hypertension. Animals in Group III were administered with 20 mg/kg/week intraperitoneal injection of methylprednisolone treated with captopril at an oral dosage of 5 mg/kg/day. For Group IV, the basal dosage of methylprednisolone was provided along with a higher dosage of captopril (10 mg/kg/day by oral route). […] The inclusion of multiple treatment groups with varying doses provided insights into the relative efficacy and dose-response relationship of the interventions. Randomization was done by block randomization, ensuring without bias these allocations of animals into groups. Before intervention, baseline characteristics such as weight, age, or sex of animals were determined, and t-test or ANOVA was used to affirm that no significant difference between groups existed. The SYRCLE’s Risk of Bias tool analyzed potential biases across various domains like selection, performance, and detection bias; each domain was rated according to low, high, or unclear risk.
The CODA Non-Invasive Blood Pressure Recorder (Kent Scientific Corporation, Torrington, CT, USA) was used to measure mean arterial blood pressure in conscious rats using the tail-cuff method. With the rat’s tail protruding, the restrainer was inserted in the BP instrument. […] The tail was gently pressed against a transducer membrane that was linked to the digital BP display panel. After that, the device was turned on and stabilized until a consistent pulse rate was seen. […] In this investigation, albino rats (body weight 150–200 g) were employed. Rats were divided into four groups, each with four individuals. […] After 1 h, the mean arterial blood pressure was measured.
Statistical analysis was carried out by one-way analysis of variance followed by Dunnet’s multiple comparison test using GraphPad InStat 3 (Graph Pad Software Inc., San Diego, CA, USA). All values were expressed as mean ± standard error of the mean (SEM). All groups were compared with hypertensive control animals. p-value of <0.01 was statistically significant.

[2] = target: ACE enzyme (Homo sapiens, UniProt P12821); experiment: ACE inhibition assay (absorbance at 340 nm)
Chain of ACE enzyme (P12821 30-1306, species assumed): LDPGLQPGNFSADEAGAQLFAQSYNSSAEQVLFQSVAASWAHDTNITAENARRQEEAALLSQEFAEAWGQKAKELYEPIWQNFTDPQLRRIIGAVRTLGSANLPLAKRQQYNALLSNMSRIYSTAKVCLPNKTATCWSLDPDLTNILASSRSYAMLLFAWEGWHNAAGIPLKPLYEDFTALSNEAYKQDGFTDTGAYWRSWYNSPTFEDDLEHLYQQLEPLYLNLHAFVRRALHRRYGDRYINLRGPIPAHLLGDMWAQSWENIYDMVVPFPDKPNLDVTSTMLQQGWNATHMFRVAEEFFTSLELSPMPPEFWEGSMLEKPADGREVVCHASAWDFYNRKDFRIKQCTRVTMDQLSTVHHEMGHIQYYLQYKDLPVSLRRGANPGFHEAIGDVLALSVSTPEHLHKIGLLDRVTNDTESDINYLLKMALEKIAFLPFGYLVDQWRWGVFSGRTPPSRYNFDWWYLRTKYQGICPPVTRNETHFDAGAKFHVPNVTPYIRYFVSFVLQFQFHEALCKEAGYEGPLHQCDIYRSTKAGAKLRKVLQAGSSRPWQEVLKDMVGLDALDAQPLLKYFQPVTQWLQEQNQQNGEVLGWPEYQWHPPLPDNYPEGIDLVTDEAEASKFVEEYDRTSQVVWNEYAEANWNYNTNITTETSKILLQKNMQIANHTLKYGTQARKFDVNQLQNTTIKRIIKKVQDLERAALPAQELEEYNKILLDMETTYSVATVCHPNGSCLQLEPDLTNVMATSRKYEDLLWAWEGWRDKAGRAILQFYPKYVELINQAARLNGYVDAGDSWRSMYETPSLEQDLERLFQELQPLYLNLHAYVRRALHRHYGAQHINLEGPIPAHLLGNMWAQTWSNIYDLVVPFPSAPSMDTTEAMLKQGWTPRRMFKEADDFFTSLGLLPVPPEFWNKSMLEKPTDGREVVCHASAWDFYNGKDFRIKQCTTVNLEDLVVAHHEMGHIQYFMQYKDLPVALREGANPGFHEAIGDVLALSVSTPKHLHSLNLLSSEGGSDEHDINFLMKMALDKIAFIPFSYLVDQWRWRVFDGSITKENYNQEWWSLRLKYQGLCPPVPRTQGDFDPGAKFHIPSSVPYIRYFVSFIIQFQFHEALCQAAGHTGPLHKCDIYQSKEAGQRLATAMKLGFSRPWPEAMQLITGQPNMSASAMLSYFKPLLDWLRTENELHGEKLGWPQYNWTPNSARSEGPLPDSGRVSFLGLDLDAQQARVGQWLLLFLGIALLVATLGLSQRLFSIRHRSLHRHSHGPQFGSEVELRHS
Experimental: The enzyme solution and substrate were prepared under standard protocols, and the assay was performed in 96-well plates wherein the ACE enzyme and inhibitor were mixed with the substrate. The reaction was incubated at 37 °C for 30 min, after which the ACE activity was determined by measuring the absorbance at 340 nm that correlated with the product formation and enzyme activity [36]. The IC₅₀ values that specify inhibition at 50% concentration were generated from concentration-inhibition data. The percentage inhibition was calculated using the formula:Percentage Inhibition (%) = (A − C)/ (A − B) ∗ 100 where A is the absorbance of the negative control (substrate and enzyme), B is the absorbance of the blank (buffer only) and C is the absorbance of the sample (enzyme, substrate and sample). For the positive control, captopril was used instead of a sample and was considered as C.

[3] = Pharmacokinetics after oral administration (plasma, UV spectrophotometry at 340 nm); assay type: in vivo; details: rat; for Cmax / MRT / AUC(0-t): plasma; for AUC(0-t): read-out: AUC 0–7 (converted)
Experimental: In accordance with the ICH guidelines Q2 (R1) (2005) standard calibration curves, regression equations, and values for LOD and LOQ for each compound were validated with UV spectrophotometric method. Various parameters, such as linearity, precision, limit of detection, and limit of quantification, were considered for the method validation. […] The rats were orally administered (10, 20, and 40 mg/Kg body weight, n = 3) using a 20 G gavage needle. The animals were given a standard diet 4 h after the dosing, and blood samples were collected (approximately 400 μL) from each animal and placed into heparinized tubes before the dosing and at 0, 30, 60, 120, 180, 240, 300, 360, and 420 min after the dosing. Plasma (100 μL) was separated by centrifuging blood samples at 3600 rpm for 10 min at room temperature, followed by immediate processing for the analyses.
Plasma concentration by the compound was measured by UV spectrophotometry at 340 nm and validated per ICH requirements. […] The precision studies gave % RSD less than 2 for intra-day and inter-day variations, and recovery studies were between 97–99%, indicating the reliability of method.
The plasma concentration–time graph obtained after oral administrations were subjected to non-compartmental analyses based on the statistical moment theory, as shown in Figure 6 and Table 4. Pharmacokinetic parameters were calculated using WinNorlin 5.2 (Certara; available at www.certara.com, accessed on 20 November 2024). The parameters obtained include maximum plasma concentration (Cmax), the time to reach Cmax (Tmax), the elimination half-life (t1/2), the area under the plasma concentration–time curve from time zero to infinity (AUC0–∞), the area under the plasma concentration–time curve from time zero to 420 min AUC0–7, the mean residence time (MRT), and clearance (CL).

COc1cc2oc(-c3ccc(O)cc3)c(OC3OC(CO)C(O)C(O)C3O)c(=O)c2c(O)c1OC (stereo not shown)
Diastolic BP ([1]; 10 mg/kg): 126.99 ± 6.80
Heart Rate ([1]; 10 mg/kg): 443.99 ± 15.12 Beats/min
MABP ([1]; 10 mg/kg): 144.4 ± 4.59 mmHg
Systolic BP ([1]; 10 mg/kg): 179.19 ± 7.18
Diastolic BP ([1]; 20 mg/kg oral): 110.88 ± 10.28
Heart Rate ([1]; 20 mg/kg oral): 430.66 ± 10.5 Beats/min
MABP ([1]; 20 mg/kg oral): 120.1 ± 5.1 mmHg
Systolic BP ([1]; 20 mg/kg oral): 138.44 ± 7.09
Diastolic BP ([1]; 40 mg/kg oral): 85.76 ± 7.4
Heart Rate ([1]; 40 mg/kg oral): 408.99 ± 9.0 Beats/min
MABP ([1]; 40 mg/kg oral): 95.53 ± 7.5 mmHg
Systolic BP ([1]; 40 mg/kg oral): 114.99 ± 5.8
blood pressure in treated rats ([1]; 10, 20 and 40 mg/kg): dose-dependent decrease in blood pressure
systolic and diastolic blood pressures compared with vehicle ([1]; methyl predenisolone-induced hypertensive rats, p < 0.01): significantly lower
pIC50 [2]: ~4.70
inhibition at 100 µM ([2]; read-out: maximum ACE inhibition): ~82%
Cmax ([3]; 10 mg/kg b.w. oral): 100 µg/mL
MRT ([3]; 10 mg/kg b.w. oral): 3.05 h
AUC(0-t) ([3]; 10 mg/kg b.w. oral): 438 µg·h/mL
Cmax ([3]; 20 mg/kg b.w. oral): 119 µg/mL
MRT ([3]; 20 mg/kg b.w. oral): 2.98 h
AUC(0-t) ([3]; 20 mg/kg b.w. oral): 499 µg·h/mL
Cmax ([3]; 40 mg/kg b.w. oral): 125 µg/mL
MRT ([3]; 40 mg/kg b.w. oral): 3.04 h
AUC(0-t) ([3]; 40 mg/kg b.w. oral): 539 µg·h/mL
Elimination Rate ([3]; 10 mg/kg b.w. oral): 0.0001236 h⁻¹
Elimination Rate ([3]; 20 mg/kg b.w. oral): 0.0006846 h⁻¹
Elimination Rate ([3]; 40 mg/kg b.w. oral): 0.0002917 h⁻¹
bioavailability ([3]; oral): moderate

C[C@H](CS)C(=O)N1CCC[C@H]1C(=O)O [Captopril, captopril, reference compound]
Diastolic BP ([1]; 5 mg/kg): 117.8 ± 11.19
Heart Rate ([1]; 5 mg/kg): 507.11 ± 6.13 Beats/min
MABP ([1]; 5 mg/kg): 126.19 ± 11.10 mmHg
Systolic BP ([1]; 5 mg/kg): 142.99 ± 10.88
Diastolic BP ([1]; 10 mg/kg): 98.66 ± 10.18
Heart Rate ([1]; 10 mg/kg): 421.78 ± 12.0 Beats/min
MABP ([1]; 10 mg/kg): 112.6 ± 5.17 mmHg
Systolic BP ([1]; 10 mg/kg): 136.77 ± 6.13
